Data: patent US20160015638A1, “STABLE GLUCOKINASE ACTIVATOR COMPOSITIONS” (vTv Therapeutics LLC, priority 2013, published 2016)

Key:
[1] = system: insulin secretion by the pancreas; settings: in the presence of glucose; cited from earlier work
[2] = X-ray powder diffraction (XRPD) crystal structure before and after processing; assay type: physicochemical
Text: The crystal structure of {2-[3-cyclohexyl-3-(trans-4-propoxy-cyclohexyl)-ureido]-thiazol-5-ylsulfanyl}-acetic acid was not changed during nanosizing.
The crystal structure of {2-[3-cyclohexyl-3-(trans-4-propoxy-cyclohexyl)-ureido]-thiazol-5-ylsulfanyl}-acetic acid was not changed during spray drying.

[3] = Biopharmaceutics Classification System (BCS) classification; assay type: physicochemical
Text: As a result, Class IV drugs have poor bioavailability and are usually not well-absorbed while having high variability. Preparing a stable, bioavailable composition containing {2-[3-cyclohexyl-3-(trans-4-propoxy-cyclohexyl)-ureido]-thiazol-5-ylsulfanyl}-acetic acid or a pharmaceutically acceptable salt thereof is, however, not straight forward.

CCCO[C@H]1CC[C@H](N(C(=O)Nc2ncc(SCC(=O)O)s2)C2CCCCC2)CC1 [{2-[3-cyclohexyl-3-(trans-4-propoxy-cyclohexyl)-ureido]-thiazol-5-ylsulfanyl}-acetic acid]
insulin secretion by the pancreas [1]: does not increase insulin secretion | crystal structure (XRPD) ([2]; during nanosizing by microfluidization, lyophilized suspension): not changed | crystal structure (XRPD) ([2]; during spray drying): not changed | Biopharmaceutics Classification System (BCS) class [3]: Class IV | solubility ([3]; BCS classification): low solubility
